Experimental data published in EP0029617A1, “Use of tertiary heterocyclic amines as synergists in pesticides; derivatives of cycloamines” (priority 1979, dated 1981).

Test system: Kornkäfer (sitophilus granarius L)
Test: whole plant or invertebrate
Format: in vivo
Conditions: for mortality at 1000 µg/mL: read-out: Wirksamkeit in % Substanz allein
Procedure: Test von tertiären, heterocyclischen Aminen allein und im Gemisch mit Pyrethroiden an Kornkäfern (sitophilus granarius L)
In Petrischalen mit 15 cm Durchmesser mit talcumbepuderten Seitenwänden, um das Entfliehen der Kornkäfer zu verhindern, wurden jeweils 2 ml der Acetonlösungen einpipettiert und durch vorsichtiges Schwenken der Schalen gleichmäßig auf dem Boden verteilt. Nach dem Abdampfen des Acetons und dem Antrocknen der Beläge wurden in jede Schale 25 Kornkäfer eingezählt. Nach einer Stunde wurde jeweils ein 12,5 cm Rundfilter in die Schalen eingelegt, um den Käfern das Befreien aus der Rückenlage zu ermöglichen, was auf der glatten Glasplatte nicht möglich ist. Die lichtscheuen Käfer verkrochen sich mit Vorliebe unter die Filter und blieben so ständig mit den Wirkstoffbelägen in Kontakt. Alle Versuche liefen mit 3 Wiederholungen. Nach 3 h wurden die toten Käfer ausgezählt.
In der Tabelle 3 ist jeweils der Durchschnitt der Summe der 4 Einzelwerte angegeben. 25 tote Kornkäfer entsprechen dabei einer Wirkung von 100 %. Die Temperaturen betrugen während der Tests im Durchschnitt 19 - 21°C. Der synergistische Faktor berechnet sich analog wie in Beispiel 1 angegeben.
Die zu prüfenden tertiären, heterocyclischen Amine wurden - mit 1 mg Wirkstoff pro ml als Acetonlösungen angesetzt. Sie wurden im Verhältnis 1 : 1 mit Ripcord bzw. Talcord, die mit 0,01 mg Wirkstoff pro ml als Acetonlösung vorlagen, gemischt. Die Einzelkomponenten wurden im Verhältnis 1 : 1 mit Aceton gemischt.
Auch bei diesen Versuchen zeigten die Kontrollversuche stets bei Versuchsende eine Mortalität der Kornkäfer von 0 %.
Die synergistische Wirkung der tertiären, heterocyclischen Amine auf die Pyrethroide ist auch dann noch deutlich, wenn das Amin in wesentlich niederen Aufwandmengen eingesetzt wird, als dies in Beispiel 3 beschrieben wurde. Die Ergebnisse sind in der Tabelle 4 zusammengestellt. Dieser Versuch zeigt auch, daß Amine mit insektiziden Eigenschaften, wenn sie in Konzentrationen unterhalb ihres insektiziden Wirkungsbereiches eingesetzt werden, immer noch gute synergistische Wirkungen im Gemisch mit Pyrethroiden zeigen. Die Versuche wurden wie im Beispiel 3 beschrieben mit Kornkäfern durchgeführt. Es wurden lediglich die Konzentrationen der eingesetzten tertiären, heterocyclischen Amine geändert. Für die Verdünnung Pyrethroid : Amin = 1 : 10 wurde das Amin mit 0,1 mg Wirkstoff/ml Acetonlösung eingesetzt. Für die Verdünnung 1 : 5 mit 0,05 mg Wirkstoff/ml.

[1] = sitophilus granarius, in vivo, 3 h
[2] = amine 1 mg/ml + Ripcord 0,01 mg/ml
[3] = amine 1 mg/ml + Talcord 0,01 mg/ml
[4] = amine 1 mg/ml in Aceton mixed 1 : 1 with Aceton, 2 ml per dish, 25 weevils, dead counted after 3 h
[5] = amine 1 mg/ml mixed 1 : 1 with Ripcord 0,01 mg/ml, 3 h
[6] = amine 1 mg/ml mixed 1 : 1 with Talcord 0,01 mg/ml, 3 h
[7] = Sitophilus granarius, amine 1 mg/ml in Aceton mixed 1 : 1 with Aceton, 2 ml per dish, 25 weevils, dead counted after 3 h
[8] = Pyrethroid : Amin 1 : 10, amine 0,1 mg/ml, 180 min

| Compound | Synergistischer Faktor bei Ripcord [2] | Synergistischer Faktor bei Talcord [3] | Wirksamkeit in % Substanz allein [4] [%] | Wirksamkeit in % Substanz +Ripcord [5] | Wirksamkeit in % Substanz +Talcord [6] | mortality at 1000 µg/mL [7] [%] | further results |
| --- | --- | --- | --- | --- | --- | --- | --- |
| CCCCOCCOCCN1CCCCCC1 [N-(2'-Butoxi-diethylether-(2))-hexamethylenimin] | – | – | – | – | – | – | Synergistischer Faktor bei Ripcord (in vivo): 2,50; Synergistischer Faktor bei Talcord (in vivo): 3,30; Wirksamkeit in % Substanz +Ripcord [1]: 78,8%; Wirksamkeit in % Substanz +Talcord [1]: 32,0%; Wirksamkeit in % Substanz allein [1]: 0% |
| c1ccc(COCCN2CCOCC2)cc1 [N-(2-Benzyloxi-ethyl-(1))-morpholin] | 1,61 | 3,30 | 0 | 50,8% | 32,0% | – | – |
| c1ccc(OCCN2CCOCC2)cc1 [N-(2-Phenoxi-ethyl-(1))-morpholin] | 2,45 | 6,47 | 0 | 77,2% | 62,8% | – | – |
| CCC1CCCCN1Cc1ccccc1 (centres unmarked) [N-Benzyl-2-ethyl-piperidin] | 2,50 | 1,53 | – | 78,8% | 14,8% | 0 | – |
| c1ccc(CN2CCOCC2)cc1 [N-Benzyl-morpholin] | 1,43 | 2,19 | – | 45,2% | 21,2% | 0 | – |
| c1ccc(CN2CCCCC2)cc1 [N-Benzyl-piperidin] | – | – | – | 94,8% | 32,0% | 0 | % Wirkung Substanz +Ripcord [8]: 100,0%; % Wirkung Substanz +Talcord [8]: 73,2%; mortality at 100 µg/mL (Sitophilus granarius, 3 h, amine 0,1 mg/ml (as for Pyrethroid : Amin 1 : 10), read-out: % Wirkung Substanz allein): 0% |
| c1ccc(CN2CCCC2)cc1 [N-Benzyl-pyrrolidin] | 2,45 | 1,65 | – | 77,2% | 16,0% | 0 | – |
| C(=Cc1ccccc1)CN1CCOCC1 [N-Cinnamyl-morpholin] | 1,74 | 4,54 | – | 54,8% | 44,0% | 0 | – |
| C1CCCC(N2CCOCC2)CC1 [N-Cycloheptyl-morpholin] | 1,78 | 3,59 | – | 56,0% | 34,8% | 0 | – |
| C1CCC(N2CCCC2)CC1 [N-Cyclohexyl-pyrrolidin] | 2,16 | 1,72 | – | 68,0% | 17,2% | 0 | – |
| CN(C)C(=O)N1CCCCCC1 [N-Dimethyl-carbamoyl-hexa-methylenimin] | 2,45 | 5,48 | 0 | 77,2% | 53,2% | – | – |
| CN(C)C(=O)N1CCCCC1 [N-Dimethyl-carbamoyl-piperidin] | 1,69 | 6,60 | 0 | 53,2% | 64,0% | – | – |
| c1ccc(C(c2ccccc2)N2CCOCC2)cc1 [N-Diphenyl-methyl-morpholin] | 2,29 | 4,12 | 0 | 72,0% | 40,0% | – | – |
| OCCN1CCOCC1 [N-Ethanol-morpholin] | 2,12 | 4,0 | 0 | 66,8% | 38,8% | – | – |
| CC(C)=CCCC(C)=CCCC(C)=CCN1CCCCC1 [N-Farnesyl-piperidin] | 2,67 | 4,25 | – | 84,0% | 41,2% | 0 | – |
| N#CCN1CCCCCC1 [N-Hexamethylenimino-aceto-nitril] | 1,69 | 1,53 | 0 | 53,2% | 14,8% | – | – |
| CCOC(=O)CCN1CCOCC1 [N-Morpholino-propionsäure-ethylester] | 2,07 | 2,76 | 0 | 65,2% | 26,8% | – | – |
| CCCCCC(C=O)CN1CCCCC1 (centres unmarked) [N-Piperidino-methyl-heptanal] | – | – | 0 | 49,2% | 60,0% | – | Synergistischer Faktor bei Ripcord (in vivo): 1,56; Synergistischer Faktor bei Talcord (in vivo): 6,19 |
| OCC(CO)(CO)CN1CCCCC1 [N-Piperidino-pentaerythrit] | 1,99 | 3,30 | 0 | 62,8% | 32,0% | – | – |
| c1cc2c(cc1CN1CCCCCC1)OCO2 [N-Piperonyl-hexamethylenimin] | 3,05 | 7,01 | – | 96,0% | 68,0% | 0 | – |
| c1cc2c(cc1CN1CCOCC1)OCO2 [N-Piperonyl-morpholin] | 2,32 | 3,84 | – | 73,2% | 37,2% | 0 | – |
| CCC(CC)N1CCCC1 [Pentyl-(3)-N-pyrrolidin] | 2,67 | 4,82 | 0 | 84,0% | 46,8% | – | – |
| O=C(OCc1ccccc1)C(c1ccccc1)N1CCCCC1 (centres unmarked) [Phenyl-N-piperidino-essig-säure-benzylester] | 3,05 | 2,89 | 0 | 96,0% | 28,0% | – | – |
| CCOC(=O)C(c1ccccc1)C(C(=O)OCC)N1CCCC1 (centres unmarked) [Phenyl-N-pyrrolidin-bern-steinsäure-diethylester] | 2,79 | 2,76 | 0 | 88,0% | 26,8% | – | – |
| CCOC(=O)C(c1ccccc1)N1CCCC1 (centres unmarked) [Phenyl-N-pyrrolidin-essigsäure-ethylester] | 2,92 | 2,60 | 0 | 92,0% | 25,2% | – | – |
| CC1(C)C(C=C(Cl)Cl)C1C(=O)OC(C#N)c1cccc(Oc2ccccc2)c1 (centres unmarked) [Ripcord, reference compound] | – | – | – | – | – | – | Wirksamkeit von Ripcord (Ripcord alone, 0,01 mg/ml mixed 1 : 1 with Aceton, 3 h): Wirksamkeit von Ripcord: 31,5% |
| CC1(C)C(C=C(Cl)Cl)C1C(=O)OCc1cccc(Oc2ccccc2)c1 (centres unmarked) [Talcord, reference compound] | – | – | – | – | – | – | Wirksamkeit von Talcord (Talcord alone, 0,01 mg/ml mixed 1 : 1 with Aceton, 3 h): Wirksamkeit von Talcord: 9,7% |
